Measured values published in patent publication US7662404B2, “Transdermal delivery system for dried particulate or lyophilized peptides and polypeptides” (TransPharma Medical Ltd., priority 2002, dated 2010).
Like-named read-outs stand apart in the source and are kept apart here.

Experiments:
[1] = Plasma hPTH (1-34) after SC injection or printed patches (water) with ViaDerm in pigs (Example 11); format: in vivo; conditions: for bioavailability: read-out: % bioavailability cf. to S.C.
Protocol: Pigs (males, 10-12 kg, Large white) were treated as follows:
Group 1: 10 μg of hPTH (1-34) were injected subcutaneously (S.C.; total 3 pigs)
[…] Printed patches containing 50 μg hPTH (1-34) were placed over the treated area and covered with Tegaderm (3M Health Care, St. Paul, Minn.). Total delivery area=1.4 cm (total 3 pigs).
(§1) […] Printed patches containing 100 μg hPTH (1-34) were placed over the treated area and covered with Tegaderm. Total delivery area=1.4 cm (total 3 pigs).
as §1
hPTH (1-34) was dissolved in water and then printed on the patches. hPTH (1-34) concentrations in pig plasma were measured by an ELISA kit (Immutopics, San Clemente, Calif., USA).

[2] = Plasma hPTH (1-34) in pigs as a function of patch application time (Example 14); format: in vivo; conditions: male, large white, pig; for Cmax: read-out: Cmax AVG ± SD; for F rel: topical or ocular, compared to SC, read-out: % BIO AVG ± SD
Protocol: A printed patch containing 90 μg of hPTH (1-34) was placed over the application area and covered with Tegaderm. The patch was removed 1 hour, 1.5 hours, 2 hours or 8 hours after application, and the skin site was gently wiped to remove residual peptide. As a control group, pigs were injected s.c. with 0.2 ml FORTEO® (hPTH (1-34) purchased from Ely Lilly, Indianapolis, Ind., USA; 250 μg/ml) diluted to 100 μg/ml in the dorsal neck area (final dose was 20 μg per animal). Formulation: hPTH (1-34) (10 mg/ml): Trehalose (110 mg/ml) in 50 mM acetic acid, pH=4.
To determine the amount of hPTH(1-34) delivered to the blood of the treated pigs, blood samples were withdrawn at the indicated time points and the amount of hPTH(1-34) was measured by an ELISA kit (Immutopics, San-Clemente, Calif.).

[3] = tested on: plasma calcium ions and phosphorous; experiment: Plasma calcium ions and phosphorus in women after hPTH (1-34) (Example 13); format: in vivo, human; conditions: four women, all transdermal and SC treatments
Protocol: Each female adult received five treatments of hPTH (1-34) with a minimum of 2 day clearance between treatments. The treatments were as follows: • 1. Three ViaDerm applications (final density of 300 micro-channels/cm^2) on one site of the upper arm. Two printed patches, each containing 100 μg hPTH (1-34), were placed over the application area (each for 6 hours). • 2. Two ViaDerm applications (final density of 150 micro-channels/cm^2) on one site of the upper arm. Two printed patches, each containing 200 μg hPTH (1-34), were placed over the application area. • 3. Three ViaDerm applications (final density of 300 micro-channels/cm^2) on one site of the upper arm. Two printed patches, each containing 200 μg hPTH (1-34), were placed over the application area. • 4. Subcutaneous (SC) injection of 20 μg hPTH (1-34) (FORTEO®, Teriparatide was purchased from Ely Lilly, Indianapolis, Ind., USA). • 5. SC injection of 60 μg hPTH (1-34) (FORTEO®).
Plasma hPTH (1-34), calcium ions and phosphate ions were determined by Eliza using commercial kits.

[4] = Plasma hPTH (1-34) from different printed patch formulations in pigs (Example 12); format: in vivo
Protocol: The experiment was performed as follows: Group 1: Each pig underwent two ViaDerm applications (150 micro-channels/cm^2) on one site on the back. A 100 μg hPTH (1-34) printed patch was placed over the application area and covered with Tegaderm. Total delivery area=1.4 cm (total 3 pigs). Formulation: hPTH (1-34) in water for injection (WFI), pH=6. Group 2: Each pig underwent two ViaDerm applications (150 micro-channels/cm^2) on one site on the back. A 100 μg hPTH (1-34) printed patch was placed over the application area and covered with Tegaderm. Total delivery area=1.4 cm^2 (total 3 pigs). Formulation: hPTH (1-34): Sucrose (1:5.5) in 0.72% acetic acid, pH=4. Group 3: Each pig underwent two ViaDerm applications (150 micro-channels/cm^2) on one site on the back. A 100 μg hPTH (1-34) printed patch was placed over the application area and covered with Tegaderm. Total delivery area=1.4 cm^2 (total 3 pigs). Formulation: hPTH (1-34): Trehalose (1:11) in 0.4% citric acid, pH=4. Group 4: Each pig was injected SC with 0.2 ml (20 μg) of hPTH (1-34) diluted to a 100 μg/ml solution with saline (total 3 pigs).

**Q.** Which Amount delivered ([1]; S.C. 10 μg) does the source give for `CC[C@H](C)[C@H](NC(=O)[C@H](CCC(=O)O)NC(=O)[C@H](CO)NC(=O)[C@@H](NC(=O)[C@@H](N)CO)C(C)C)C(=O)N[C@@H](CCC(N)=O)C(=O)N[C@@H](CC(C)C)C(=O)N[C@@H](CCSC)C(=O)N[C@@H](Cc1cnc[nH]1)C(=O)N[C@@H](CC(N)=O)C(=O)N[C@@H](CC(C)C)C(=O)NCC(=O)N[C@@H](CCCCN)C(=O)N[C@@H](Cc1cnc[nH]1)C(=O)N[C@@H](CC(C)C)C(=O)N[C@@H](CC(N)=O)C(=O)N[C@@H](CO)C(=O)N[C@@H](CCSC)C(=O)N[C@@H](CCC(=O)O)C(=O)N[C@@H](CCCN=C(N)N)C(=O)N[C@H](C(=O)N[C@@H](CCC(=O)O)C(=O)N[C@@H](Cc1c[nH]c2ccccc12)C(=O)N[C@@H](CC(C)C)C(=O)N[C@@H](CCCN=C(N)N)C(=O)N[C@@H](CCCCN)C(=O)N[C@@H](CCCCN)C(=O)N[C@@H](CC(C)C)C(=O)N[C@@H](CCC(N)=O)C(=O)N[C@@H](CC(=O)O)C(=O)N[C@H](C(=O)N[C@@H](Cc1cnc[nH]1)C(=O)N[C@@H](CC(N)=O)C(=O)N[C@@H](Cc1ccccc1)C(=O)O)C(C)C)C(C)C` [hPTH (1-34)] here?
**A.** 10 µg

**Q.** What about the AUC ([1]; male, Large white, pig, plasma, other: transdermal printed patch on ViaDerm-treated skin, 50 ug, printed patch 50 μg) of the same molecule?
**A.** 0.46 ng·h/mL

**Q.** And the Cmax ([1]; male, Large white, pig, plasma, other: transdermal printed patch on ViaDerm-treated skin, 50 ug, printed patch 50 μg (water), ViaDerm, back, read-out: Cmax)?
**A.** ~0.15 ng/mL

**Q.** And the AUC ([1]; male, Large white, pig, plasma, other: transdermal printed patch on ViaDerm-treated skin, 100 ug, patch 100 μg)?
**A.** 0.919 ng·h/mL

**Q.** And the Cmax ([1]; male, Large white, pig, plasma, other: transdermal printed patch on ViaDerm-treated skin, 100 ug, printed patch 100 μg (water), ViaDerm, back, read-out: Cmax)?
**A.** 0.32 ng/mL

**Q.** What about the AUC ([1]; male, Large white, pig, plasma, other: transdermal printed patch on ViaDerm-treated skin, 200 ug, patch 200 μg) of the same molecule?
**A.** 1.6 ng·h/mL

**Q.** And the Cmax ([1]; male, Large white, pig, plasma, other: transdermal printed patch on ViaDerm-treated skin, 200 ug, printed patch 200 μg (water), ViaDerm, back, read-out: Cmax)?
**A.** ~0.32 ng/mL

**Q.** And the AUC ([1]; male, Large white, pig, plasma, sc, 10 ug, S.C. 10 μg)?
**A.** 0.365 ng·h/mL

**Q.** And the bioavailability ([1]; male, Large white, pig, plasma, sc, 10 ug, S.C. 10 μg (reference))?
**A.** 100%

**Q.** What about the Cmax ([1]; male, Large white, pig, plasma, sc, 10 ug, S.C. 10 μg, neck, read-out: Cmax) of the same molecule?
**A.** 0.374 ng/mL

**Q.** What about the bioavailability ([1]; male, Large white, pig, plasma, sc, 50 ug, printed patch 50 μg) of the same molecule?
**A.** 25.2%

**Q.** What about the bioavailability ([1]; male, Large white, pig, plasma, sc, 100 ug, patch 100 μg) of the same molecule?
**A.** 25.2%

**Q.** What about the bioavailability ([1]; male, Large white, pig, plasma, sc, 200 ug, patch 200 μg) of the same molecule?
**A.** 21.9%

**Q.** And the Amount delivered ([1]; patch 100 μg)?
**A.** 225.18 µg

**Q.** And the Amount delivered ([1]; patch 200 μg)?
**A.** 43.84 µg

**Q.** What about the Amount delivered ([1]; printed patch 50 μg) of the same molecule?
**A.** 12.6 µg

**Q.** And the Cmax ([1]; printed patch 50 μg (water), ViaDerm, back)?
**A.** 0.136 ng/mL

**Q.** And the Cmax ([1]; printed patch 200 μg (water), ViaDerm, back)?
**A.** 0.317 ng/mL

**Q.** What about the Cmax ([2]; 90 ug, TD 90 ug printed patch, removed after 1 h) of the same molecule?
**A.** 0.0772 ± 0.0358 ng/mL

**Q.** And the Cmax ([2]; 90 ug, TD 90 ug printed patch, removed after 1.5 h)?
**A.** 0.179 ± 0.0658 ng/mL

**Q.** What about the Cmax ([2]; 90 ug, TD 90 ug printed patch, removed after 2 h) of the same molecule?
**A.** 0.137 ± 0.0431 ng/mL

**Q.** And the Cmax ([2]; 90 ug, TD 90 ug printed patch, removed after 8 h)?
**A.** 0.128 ± 0.0524 ng/mL

**Q.** And the AUC ([2]; 90 ug, TD 90 ug, 1 h)?
**A.** 0.232 ± 0.0418 ng·h/mL

**Q.** What about the AUC ([2]; 90 ug, TD 90 ug, 1.5 h) of the same molecule?
**A.** 0.296 ± 0.0716 ng·h/mL

**Q.** And the AUC ([2]; 90 ug, TD 90 ug, 2 h)?
**A.** 0.272 ± 0.0545 ng·h/mL

**Q.** What about the AUC ([2]; 90 ug, TD 90 ug, 8 h) of the same molecule?
**A.** 0.331 ng·h/mL

**Q.** What about the AUC ([2]; sc, 20 ug, SC 20 ug) of the same molecule?
**A.** 0.237 ± 0.0273 ng·h/mL

**Q.** And the Cmax ([2]; sc, 20 ug, SC 20 ug)?
**A.** 0.289 ± 0.0525 ng/mL

**Q.** What about the F rel ([2]; 90 ug, TD 90 ug, 1 h) of the same molecule?
**A.** 22.4 ± 6.97%

**Q.** And the F rel ([2]; 90 ug, TD 90 ug, 1.5 h)?
**A.** 28.5 ± 9.36%

**Q.** And the F rel ([2]; 90 ug, TD 90 ug, 2 h)?
**A.** 26.2 ± 8.42%

**Q.** And the F rel ([2]; 90 ug, TD 90 ug, 8 h)?
**A.** 31.6 ± 9.03%

**Q.** What about the “plasma concentrations of calcium ions” value [3] of the same molecule?
**A.** elevation of calcium ions

**Q.** What about the “plasma concentrations of phosphorus” value [3] of the same molecule?
**A.** decrease of phosphorous

**Q.** What about the Amount delivered ([4]; S.C. 20 ug) of the same molecule?
**A.** 20 µg

**Q.** And the “% bio” value ([4]; S.C. 20 ug (reference))?
**A.** 100%

**Q.** And the AUC ([4]; pig, plasma, sc, S.C. 20 ug)?
**A.** 1.16 ± 0.761 ng·h/mL

**Q.** And the Cmax ([4]; pig, plasma, sc, S.C. 20 ug, neck)?
**A.** 1.08 ng/mL
